Structures are written as SMILES. Structures can show the parent of a compound that is named as a salt. Where two headings read alike, the source gives them in different places.

This assay addresses recombinant human AMPK complex 1 (containing α1β1γ1) (Homo sapiens, UniProt Q13131+Q9Y478). The assay can be described thus: […] (in vitro AMPK activation assay). Conditions: for Emax: basal activity subtracted; for EC50: read-out: EC50. In kind it is biochemical.
Where [1] appears, read: recombinant human AMPK complex 1 (α1β1γ1), read-out: % Maximum AMP Activation of human AMPK Complex 1.
[2] abbreviates: recombinant human AMPK complex 1 (α1β1γ1).
Setting [3] is: read-out: % Maximum AMP Activation of human AMPK Complex 1, recombinant human AMPK complex 1 (α1β1γ1).

Chain of recombinant human AMPK complex 1 (containing α1β1γ1) (Q13131 whole entry): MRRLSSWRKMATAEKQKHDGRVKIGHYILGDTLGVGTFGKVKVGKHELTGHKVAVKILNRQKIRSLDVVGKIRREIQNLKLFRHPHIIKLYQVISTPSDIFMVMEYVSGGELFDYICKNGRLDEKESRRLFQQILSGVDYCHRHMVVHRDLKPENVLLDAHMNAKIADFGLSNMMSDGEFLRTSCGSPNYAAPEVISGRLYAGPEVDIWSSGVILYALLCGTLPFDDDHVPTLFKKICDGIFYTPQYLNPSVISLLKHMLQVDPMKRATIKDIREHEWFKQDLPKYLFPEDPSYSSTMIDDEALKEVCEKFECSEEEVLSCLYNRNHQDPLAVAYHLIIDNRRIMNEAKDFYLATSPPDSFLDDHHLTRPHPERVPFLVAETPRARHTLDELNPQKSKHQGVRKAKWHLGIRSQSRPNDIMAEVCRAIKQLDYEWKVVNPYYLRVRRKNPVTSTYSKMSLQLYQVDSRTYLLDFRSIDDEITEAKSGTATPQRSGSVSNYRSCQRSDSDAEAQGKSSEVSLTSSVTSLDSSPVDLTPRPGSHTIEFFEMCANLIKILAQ
Chain of recombinant human AMPK complex 1 (containing α1β1γ1) (Q9Y478 whole entry): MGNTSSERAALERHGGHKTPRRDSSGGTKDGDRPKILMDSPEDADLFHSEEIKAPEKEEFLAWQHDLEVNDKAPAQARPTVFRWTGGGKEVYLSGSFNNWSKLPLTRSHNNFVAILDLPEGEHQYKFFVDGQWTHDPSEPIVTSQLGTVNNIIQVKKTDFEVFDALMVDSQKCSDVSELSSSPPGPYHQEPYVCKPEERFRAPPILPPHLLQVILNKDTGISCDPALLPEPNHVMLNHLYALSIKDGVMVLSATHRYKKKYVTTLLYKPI
Chain of recombinant human AMPK complex 1 (containing α1β1γ1) (P54619 whole entry partner): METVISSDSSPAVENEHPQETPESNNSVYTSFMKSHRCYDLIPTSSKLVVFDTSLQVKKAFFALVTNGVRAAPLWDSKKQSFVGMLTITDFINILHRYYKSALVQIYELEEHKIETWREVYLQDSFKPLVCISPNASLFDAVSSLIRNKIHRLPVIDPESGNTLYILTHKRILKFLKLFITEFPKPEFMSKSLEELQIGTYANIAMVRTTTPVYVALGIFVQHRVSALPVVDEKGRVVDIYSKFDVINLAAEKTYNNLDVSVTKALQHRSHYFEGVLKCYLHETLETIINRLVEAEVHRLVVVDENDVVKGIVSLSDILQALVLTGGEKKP

For the compound `COc1ccccc1C#Cc1cc2nc(Oc3ccc(C)c(C(=O)O)c3)[nH]c2cc1Cl` [Example 106, 5-[6-Chloro-5-(2-methoxy-phenylethynyl)-1H-benzoimidazol-2-yloxy]-2-methyl-benzoic acid], the Emax under setting [1] was greater than 80%. With `COC(=O)c1ccc(-c2cc3nc(Oc4ccc(C)c(C(=O)O)c4)[nH]c3cc2Cl)c2ccn(C)c12` [Example 269, 4-[2-(3-Carboxy-4-methyl-phenoxy)-6-chloro-1H-benzoimidazol-5-yl]-1-methyl-1H-indole-7-carboxylic acid methyl ester], the Emax under setting [1] is greater than 80%.

Regarding `Cc1ccc(Oc2nc3cc(-c4ccc(C(C)C)c5c4ccn5C)c(Cl)cc3[nH]2)cc1C(=O)O` [Example 272, 5-[6-Chloro-5-(7-isopropyl-1-methyl-1H-indol-4-yl)-1H-benzoimidazol-2-yloxy]-2-methyl-benzoic acid], the Emax under setting [1] is greater than 80%. As for `COC(=O)c1cc(Oc2nc3cc(-c4ccc(-c5ccc(OC)nc5)cc4)c(Cl)cc3[nH]2)cc(C)c1C` [Example 314, 5-{6-Chloro-5-[4-(6-methoxy-pyridin-3-yl)-phenyl]-1H-benzoimidazol-2-yloxy}-2,3-dimethyl-benzoic acid methyl ester], the Emax under setting [1] is greater than 80%.

With `O=C(O)c1cc(Oc2nc3cc(-c4ccc(-c5ccccc5O)cc4)c(Cl)cc3[nH]2)cc(C(=O)O)c1` [Example 54, 5-[6-Chloro-5-(2′-hydroxy-biphenyl-4-yl)-1H-benzoimidazol-2-yloxy]-isophthalic acid], under setting [1], the Emax is greater than 80%. Take `Cc1ccc(Oc2nc3c(F)c(-c4ccc5c(ccn5C)c4)c(F)cc3[nH]2)cc1C(=O)O` [Example 228, 5-[4,6-Difluoro-5-(1-methyl-1H-indol-5-yl)-1H-benzoimidazol-2-yloxy]-2-methyl-benzoic acid]: the concentration for a half-maximal effect (EC50) under setting [2] is 2 nM.

As to `CC(=O)c1ccc(-c2cc3nc(Oc4ccc(C)c(C(=O)O)c4)[nH]c3cc2Cl)cc1` [Example 157, 5-{5-(4-Acetyl-phenyl)-6-chloro-1H-benzoimidazol-2-yloxy]-2-methyl-benzoic acid], the Emax under setting [1] was greater than 80%. Turning to `Cc1cc(Oc2nc3cc(-c4ccc(-c5ccccc5)cc4)c(Cl)cc3[nH]2)cc(C(=O)O)c1C` [Example 11, 5-(5-Biphenyl-4-yl-6-chloro-1H-benzoimidazol-2-yloxy)-2,3-dimethyl-benzoic acid], the Emax under setting [1] is greater than 80%. Turning to `CSc1ccc(-c2cc3nc(Oc4ccc(C)c(C(=O)O)c4)[nH]c3cc2Cl)cc1` [Example 343, Ammonium 5-({6-chloro-5-[4-(methylthio)phenyl]-1H-benzimidazol-2-yl}oxy)-2-methylbenzoate], under setting [3], the Emax is greater than 80%. As to `CS(=O)(=O)NC(=O)c1cccc(Oc2nc3cc(-c4ccc(-c5ccccc5)cc4)c(Cl)cc3[nH]2)c1` [Example 225, N-[3-(5-Biphenyl-4-yl-6-chloro-1H-benzoimidazol-2-yloxy)-benzoyl]-methanesulfonamide], the Emax under setting [1] is greater than 80%. Turning to `Cc1ccc(Oc2nc3cc(-c4ccc(C(C)C)c5[nH]ccc45)c(Cl)cc3[nH]2)cc1C(=O)O` [Example 273, 5-[6-Chloro-5-(7-isopropyl-1H-indol-4-yl)-1H-benzoimidazol-2-yloxy]-2-methyl-benzoic acid], under setting [1], the Emax is greater than 80%. Same read-out and setting: in the case of `COC(=O)c1cc(Oc2nc3cc(-c4ccc(-c5ccccn5)cc4)c(Cl)cc3[nH]2)ccc1C` [Example 165, 5-[6-Chloro-5-(4-pyridin-2-yl-phenyl)-1H-benzoimidazol-2-yloxy]-2-methyl-benzoic acid methyl ester] it was greater than 80%. The same measure, in the same setting: in the case of `Cc1ccc(Oc2nc3cc(-c4ccc5c(C)cn(C(=O)OC(C)(C)C)c5c4)c(Cl)cc3[nH]2)cc1C(=O)O` [Example 290, 6-[2-(3-Carboxy-4-methyl-phenoxy)-6-chloro-1H-benzoimidazol-5-yl]-3-methyl-indole-1-carboxylic acid tert butyl ester] it was greater than 80%. Turning to `O=C(O)c1cccc(Oc2nc3cc(-c4ccc(-c5ccccc5)cc4)c(Cl)cc3[nH]2)c1` [Example 56, 3-(5-biphenyl-4-yl-6-chloro-1H-benzo-imidazol-2-yloxy)-benzoic acid, ammonium salt], the Emax under setting [3] was greater than 80%. For the compound `Cc1ccc(Oc2nc3cc(-c4ccc5nncn5c4)c(Cl)cc3[nH]2)cc1C(=O)O` [Example 152, 5-(6-Chloro-5-[1,2,4]triazolo[4,3-a]pyridin-6-yl-1H-benzoimidazol-2-yloxy)-2-methyl-benzoic acid], the Emax under setting [1] was greater than 80%. The same measure, in the same setting: in the case of `Cc1ccc(Oc2nc3cc(-c4ccc(C(C)N)cc4)c(Cl)cc3[nH]2)cc1C(=O)O` (stereo not shown) [Example 293, 1-{4-[2-(3-carboxy-4-methylphenoxy)-6-chloro-1H-benzimidazol-5-yl]phenyl}ethanaminium trifluoroacetate] it was greater than 80%; in that of `CC(=O)c1ccc2cc(-c3cc4nc(Oc5ccc(C)c(C(=O)O)c5)[nH]c4cc3Cl)ccc2c1` [Example 298, 5-[5-(6-Acetyl-naphthalen-2-yl)-6-chloro-1H-benzoimidazol-2-yloxy]-2-methyl-benzoic acid], greater than 80%. Same read-out and setting: in the case of `Cc1ccc(Oc2nc3cc(-c4cccc5ncccc45)c(Cl)cc3[nH]2)cc1C(=O)O` [Example 333, 2-(3-carboxy-4-methylphenoxy)-6-chloro-5-quinolin-5-yl-1H-3,1-benzimidazol-3-ium formate] it was greater than 80%. With `COc1cccc(-c2cc3nc(Oc4ccc(C)c(C(=O)O)c4)[nH]c3cc2Cl)c1` [Example 338, Ammonium 5-{[6-chloro-5-(3-methoxyphenyl)-1H-benzimidazol-2-yl]oxy}-2-methylbenzoate], the Emax under setting [3] was greater than 80%. Turning to `Cc1ccc(Oc2nc3cc(-c4ccc(C(=O)O)c5c4ccn5C)c(Cl)cc3[nH]2)cc1C(=O)O` [Example 271, 4-[2-(3-Carboxy-4-meihyl-phenoxy)-6-chloro-1H-benzoimidazol-5-yl]-1-methyl-1H-indole-7-carboxylic acid], under setting [1], the Emax is greater than 80%. Turning to `Cc1ccc(Oc2nc3cc(-c4ccc(C5(CO)CC5)cc4)c(Cl)cc3[nH]2)cc1C(=O)O` [Example 262, 5-[(6-chloro-5-{4-[1-(hydroxymethyl)cyclopropyl]phenyl}-1H-benzimidazol-2-yl)oxy]-2-methylbenzoic acid], the EC50 under setting [2] is 3 nM.

Regarding `Cc1ccc(Oc2nc3cc(-c4ccc(-c5ccc(F)cc5)cc4)c(Cl)cc3[nH]2)cc1C(=O)O` [Example 105, 5-[6-Chloro-5-(4′-fluoro-biphenyl-4-yl)-1H-benzoimidazol-2-yloxy]-2-methyl-benzoic acid], under setting [1], the Emax is greater than 80%. On the same count and under the same terms, in the case of `Cc1ccc(Oc2nc3cc(-c4ccc5c(c4)cc(CO)n5C)c(Cl)cc3[nH]2)cc1C(=O)O` [Example 274, 5-[6-Chloro-5-(2-hydroxymethyl-1-methyl-1H-indol-5-yl)-1H-benzoimidazol-2-yloxy]-2-methyl-benzoic acid] it was greater than 80%; in that of `Cc1ccc(Oc2nc3cc(-c4ccc([S+](C)[O-])cc4)c(Cl)cc3[nH]2)cc1C(=O)O` (stereo not shown) [Example 331, 2-(3-carboxy-4-methylphenoxy)-6-chloro-5-[4-(methylsulfinyl)phenyl]-1H-3,1-benzimidazol-3-ium formate], greater than 80%; in that of `Cc1ccc(Oc2nc3cc(C#Cc4ccncc4)c(Cl)cc3[nH]2)cc1C(=O)O` [Example 87, 5-(6-Chloro-5-pyridin-4-ylethynyl-1H-benzoimidazol-2-yloxy)-2-methyl-benzoic acid], greater than 80%.

What is called EC50 is the concentration needed to bring the measured effect to its halfway point.

Values taken from patent US8394969B2, “Cyclic benzimidazole derivatives useful as anti-diabetic agents” (Merck Sharp & Dohme Corp., priority 2008, dated 2013).
